# According to patent US7652054B2, “Tricyclic compounds useful as angiotensin II agonists” (Vicore Pharma AB, priority 2001, dated 2010):
# Test system: duodenal mucosal alkaline secretion
# Assay: Test C: duodenal mucosal alkaline secretion assay
# Assay type: in vivo
# Conditions: co-administration with title compounds of the Examples, anaesthetised rats
# Source text: Duodenal Mucosal Alkaline Secretion Assay
# Compounds were exposed to the duodenal mucosa in barbiturate-anaesthetised rats prepared for in situ titration of duodenal mucosal alkaline secretion, according to the methodology described by Flemström et al in Am. J. Physiol. (1982) 243, G348.
compound,measurement,value
Cc1cc(Cn2cnc3c2C[C@@H](C(=O)O)N(C(=O)C(c2ccccc2)c2ccccc2)C3)ccc1N(C)C [PD123319],effect of co-administration on the mucosal alkalisation stimulated by title compounds,blocked
